Assay: xn = mol fraction of the nth substance listed
Conditions: 101 kPa, Liquid; for viscosity: Capillary tube (Ostwald / Ubbelohde) method; for speed of sound: Cylindrical cavity resonance method

CCN1CCCC1=O [1-ethyl-2-pyrrolidinone] + O
Conditions	mass density [kg/m3]	speed of sound [m/s]	viscosity [mPa·s]
293 K, x1 = 0.022	1003.49	1574.8	1.593
293 K, x1 = 0.05	1010.45	1651.9	2.368
293 K, x1 = 0.1	1020.31	1711.9	4.149
293 K, x1 = 0.2	1026.26	1712.2	6.159
293 K, x1 = 0.3	1023.9	1677.6	6.189
293 K, x1 = 0.4	1022.18	1640.4	5.349
293 K, x1 = 0.5	1019.16	1610.7	4.506
293 K, x1 = 0.6	1014.04	1583.1	3.639
293 K, x1 = 0.7	1010.43	1562.1	3.13
293 K, x1 = 0.8	1006.66	1541.7	2.671
293 K, x1 = 0.9	1003.19	1526.1	2.458
293 K, x1 = 1	1000.55	1511.6	2.133
298 K, x1 = 0.022	1001.76	1580	1.433
298 K, x1 = 0.05	1007.34	1648.9	2.047
298 K, x1 = 0.1	1016.76	1699.4	3.418
298 K, x1 = 0.2	1021.82	1694.2	4.849
298 K, x1 = 0.3	1019.33	1658.6	5.029
298 K, x1 = 0.4	1016.58	1621.2	4.386
298 K, x1 = 0.5	1014.6	1591.5	3.856
298 K, x1 = 0.6	1009.45	1564	3.244
298 K, x1 = 0.7	1005.98	1542.9	2.836
298 K, x1 = 0.8	1002.26	1522.6	2.43
298 K, x1 = 0.9	998.84	1507	2.21
298 K, x1 = 1	996.24	1492.5	2.022
303 K, x1 = 0.022	999.83	1583.9	1.254
303 K, x1 = 0.05	1002.82	1645.1	1.767
303 K, x1 = 0.1	1013.12	1686.7	2.842
303 K, x1 = 0.2	1017.34	1675.8	4.088
303 K, x1 = 0.3	1014.71	1639.3	4.164
303 K, x1 = 0.4	1012.16	1601.7	3.621
303 K, x1 = 0.5	1010	1572.1	3.28
303 K, x1 = 0.6	1004.1	1544.6	2.86
303 K, x1 = 0.7	1001.5	1523.6	2.527
303 K, x1 = 0.8	997.83	1503.4	2.218
303 K, x1 = 0.9	994.48	1487.9	2.011
303 K, x1 = 1	991.93	1473.3	1.832
313 K, x1 = 0.022	995.35	1588.3	0.9966
313 K, x1 = 0.05	997.46	1634.8	1.327
313 K, x1 = 0.1	1005.63	1660.4	2.051
313 K, x1 = 0.2	1008.28	1639.1	2.879
313 K, x1 = 0.3	1005.38	1600.7	2.966
313 K, x1 = 0.4	1001.82	1562.8	2.6
313 K, x1 = 0.5	1000.71	1533.3	2.509
313 K, x1 = 0.6	995	1506	2.262
313 K, x1 = 0.7	992.48	1485.3	2.04
313 K, x1 = 0.8	988.94	1465.2	1.777
313 K, x1 = 0.9	985.71	1449.9	1.702
313 K, x1 = 1	983.26	1435.3	1.621
323 K, x1 = 0.022	989.91	1588.3	0.8044
323 K, x1 = 0.05	991.01	1622.3	1.073
323 K, x1 = 0.1	997.84	1633.2	1.358
323 K, x1 = 0.2	999.06	1602.1	2.164
323 K, x1 = 0.3	995.92	1561.9	2.234
323 K, x1 = 0.4	992.73	1523.7	2.014
323 K, x1 = 0.5	991.3	1494.4	1.986
323 K, x1 = 0.6	985.81	1467.5	1.856
323 K, x1 = 0.7	983.37	1447.1	1.67
323 K, x1 = 0.8	979.96	1427.3	1.54
323 K, x1 = 0.9	976.89	1412.2	1.435
323 K, x1 = 1	974.56	1398	1.358

Reference: the NIST ThermoML archive (doi:10.1021/je9003959)
